Laboratory results from US10822318B2, “Lactone-based probes and methods of use thereof” (REGENTS OF THE UNIVERSITY OF MINNESOTA, priority 2017, dated 2020).

Key:
S. pneumoniae cells = assay: 3D-SIM imaging of lactone probe labeled cells; assay type: cell-based; conditions: for late divisional cells showing central septal labeling: untreated, ≈41 cells examined
Experimental: Cells from an overnight culture were diluted to OD620 0.02 in 2 ml of fresh BHI prewarmed to 37° C. and incubated at 37° C. in an atmosphere of 5% CO2. At OD620 0.2, 1.5 ml of culture was added to a microfuge tube and centrifuged at room temperature for 5 min at 16000×g. The supernatant was discarded, the pellet was resuspended in 1 ml room temperature PBS, and the culture was centrifuged a second time. The supernatant was discarded and the pellet was resuspended in either 50 μl of PBS with 5 μg mL^−1 7FL or 100 μl PBS with 5 μg mL^−1 8T. The cells were incubated for 20 min at room temperature in the dark. After incubation the cells were spun and washed with 1 ml of PBS (7FL) or 1 ml of PBS containing 50 mM glucose (8T). The cells were spun a second time and washed with 200 μl of PBS (7FL) or 200 μl of PBS with 50 mM glucose (8T), and finally spun a third time and resuspended in 100 μl of cold (4° C.) GTE buffer (50 mM glucose, 20 mM Tris pH 7.5, 1 mM EDTA). The cells were spun down at 4° C., the supernatant was discarded, and the pellet was resuspended in 15 μl of Vectashield Hardest Antifade (Vector Labs) and kept on ice. 1.2 μl of cells in antifade was pipetted onto a clean coverslip, applied to a slide, and imaged via 3D-SIM. 3D-SIM was performed using the OMX 3D-SIM super-resolution system located in the Indiana University Bloomington Light Microscopy Imaging Center (www.indiana.edu/˜lmic/microscopes/index.html#OMX). The system used is equipped with four Photometrics Cascade II EMCCD cameras that allow simultaneous imaging of up to four colors, and is controlled by DV-OMX software, with image processing by Applied Precision softWoRx 6.0.0 software. Exposure times and % T settings for DAPI, Alexa 488, and Alexa 568 images were 5 ms and 100% for all three channels.
For pre-treatment with methicillin followed by lactone probe labeling, duplicate 2 ml cultures of each strain were created and incubated as described above. At OD620 0.12, methicillin was added to a final concentration of 0.1 μg mL^−1 to one culture for each strain, and the strains were placed back in the incubator. After 20 min, all cultures were harvested, labeled, and imaged as described above.
For labeling of cells with both lactone probes, the following changes were made: After a 20 min incubation with 7FL, the cells were spun down and washed once in 1 ml of PBS. The cells were spun again and resuspended in 100 μl of 8T in PBS at 5 μg mL^−1. The cells were incubated for 20 min at room temperature in the dark, and then washed and imaged as described above for 8T labeling.

PBPs = assay: Gel-based analysis of PBP labeling by β-lactone probes in S. pneumoniae cells; assay type: cell-based; conditions: S. pneumoniae whole cells, probe 5 μg/ml, 20 min
Experimental: Strain IU1945, an unencapsulated derivative of serotype 2 S. pneumoniae strain D39, was grown statically in brain heart infusion (BHI) medium in 100×17 mm tubes by incubation in an atmosphere of 5% CO2 at 37° C. to an OD620 of ˜0.2. For labeling experiments, overnight cultures that were still in exponential phase (OD620=0.1-0.4) were diluted to OD620=0.002-0.004 and grown as above. Samples with OD620=0.15-0.20 were utilized in labeling experiments conducted as previously described (Kocaoglu, O, et al. (2013) Curr Protoc Chem Biol 5, 239), and summarized as follows: Cell pellets from 1.5 ml of S. pneumoniae cultures were harvested by centrifugation (16,100×g for 2 min at RT) and washed with phosphate buffered saline (PBS; pH 7.4). […] The protein concentration was measured by NanoDrop 1000 Spectrophotometer (Thermo Scientific) or NanoPhotometer P330 (IMPLEN). […] The protein bands were separated by gel electrophoresis for 1.5 h at 180 V, 400 mA, 60 W. The gel was rinsed with distilled water three times before fluorescence scanning. […]
After SDS-PAGE, labeled proteins were visualized at 50-μm resolution in gels using a Typhoon 9210 gel scanner (Amersham Biosciences) with 580-nm bandpass filter for TAMRA, 526-nm short-pass filter for fluorescein and BODIPY FL, and 670-nm bandpass filter for BODIPY 650/665. All gel images were analyzed using ImageJ software (National Institutes of Health). […]

Substance: (2S,3R)-β-lactone-L-Phe-fluorescein [Probe 7FL]
- late divisional cells showing central septal labeling (S. pneumoniae cells; wild-type): 85%
- late divisional cells showing central septal labeling (S. pneumoniae cells; Δpbp1b): 73%
- PBPs labeled (gel-based labeling profile) (PBPs): only PBP1b and PBP2x

Substance: (2S, 3R)-β-lactone-D-Phe-TAMRA [Probe 8T]
- cells with labeling excluded from the center of the division site (S. pneumoniae cells; after pre-treatment with 7FL, wild-type and Δpbp1b cells): > 83%
- late divisional cells showing central septal labeling (S. pneumoniae cells; wild-type): 80.5%
- late divisional cells showing central septal labeling (S. pneumoniae cells; Δpbp1b): 75.6%
- PBPs labeled (gel-based labeling profile) (PBPs): PBP1b, PBP2x and PBP2b
